These results are taken from patent publication US20170216452A1, “ANTIBODIES AND ANTIBODY FRAGMENTS FOR SITE-SPECIFIC CONJUGATION” (Pfizer Inc., priority 2015, published 2017).

Test [1] deals with N87-T-DM1 cells (Mouse #7, #17, #2). Briefly: Cytotoxicity studies (CellTiter Glo, 96 h) on cells relapsed from T-DM1 treatment in vivo. Format: cell-based. Conditions: for IC50: Mus musculus; for sensitivity of T-DM1 resistant cells generated in vivo: N87-T-DM1 cells compared to parental. The method, then:
(§1) Cells were incubated for 96 hours in a humidified 37° C./5% CO2 incubator.

Test [2] deals with N87-TM cells (N87-TM-1, N87-TM-2). Briefly: Cytotoxicity studies (MTS) on T-DM1 resistant N87-TM cells made in vitro. Type of test: cell-based.
Description: N87 cells were passaged into two separate flasks and each flask was treated identically with respect to the resistance-generation protocol to enable biological duplicates. […] The procedure was intended to simulate the chronic, multi-cycle (on/off) dosing at maximally tolerated doses typically used for cytotoxic therapeutics in the clinic, followed by a recovery period. […] Drug selection pressure was removed after ˜3-4 months of cycle treatments when the level of resistance no longer increased after continued drug exposure. […] Data were collected from various thawed cryopreserved populations derived from a single selection, over approximately 1-2 years after model development to ensure consistency in the results.
Cells were seeded in 96-well plates at low density, then treated the following day with ADCs and unconjugated payloads at 3-fold serial dilutions at 10 concentrations in duplicate. Cells were incubated for 4 days in a humidified 37° C./5% CO2 incubator. The plates were harvested by incubating with CellTiter® 96 AQueous One MTS Solution (Promega, Madison, Wis.) for 1.5 hours and absorbance measured on a Victor plate reader (Perkin-Elmer, Waltham, Mass.) at wavelength 490 nm. IC50 values were calculated using a four-parameter logistic model with XLfit (IDBS, Bridgewater, N.J.).
For a further test, the system named is N87 parental cells. In words: Cytotoxicity studies (CellTiter Glo, 96 h) on parental N87 cells (Example 15). The following applies: read-out: sensitivity to free payload (IC50), N87. Format: cell-based. As for the experimental part: as §1
(In general: Cellular ATP, detected with luciferase, serves as a proxy for viable cell number.)

A further test relates to Ramos. In words: Ramos lymphoma CLX model. Conditions: 3 mg/kg. Type of test: in vivo, mouse. From the text:
(§2) To generate CLX models, 8×10^6 to 10×10^6 cells of H-1975, HT29, or Ramos tumor lines were implanted into female athymic nude mice subcutaneously. Ramos and H-1975 cells for inoculation were suspended in 50% and 100% Matrigel (BD Biosciences), respectively. For the Ramos model, the animals received whole body irradiation (4 Gy) before cell inoculation to facilitate the establishment of tumors. When the average tumor volume reached approximately 160 to 320 mm^3, the animals were randomized into treatment groups, with 8-10 mice in each group. ADCs or vehicle (PBS) were administered intravenously on day 0 and then the animals were dosed once every 4 days for 4 to 8 doses. Tumors were measured once or twice weekly and tumor volume was calculated as volume (mm^3)=(width×width×length)/2.

Another test deals with PDX-PAX-12534. In words: PDX-PAX-12534 pancreatic PDX model. Type of test: in vivo, mouse. The following applies: 0.3, 1 and 3 mg/kg. The text has this:
(§3) To generate PDX models, tumors were collected from donor animals and tumor fragments approximately 3×3 mm were implanted subcutaneously into the flank of female athymic nude mice (for PDX-NSX-11122 model) or NOD SCID mice (for PDX-PAX-13565 and PDX-PAX-12534 models) by using a 10 gage trocar. When average tumor volume reached approximately 160 to 260 mm^3 the mice were randomized into treatment groups, with 7-10 mice in each group. ADCs or vehicle (PBS) dosing regime and administration route as well as tumor measurement procedures are the same as described above for CLX models.

The next test relates to H-1975. Briefly: H-1975 NSCLC CLX model. Type of test: in vivo, mouse.
Description: as §2

Test [3] deals with HT29 colon carcinoma cells (EDB+FN negative). Briefly: In vitro cytotoxicity of anti-EDB ADCs (Cell Titer Glo, 4 days). Format: cell-based, human. The following applies: four days, ng/ml of antibody. As for the experimental part:
Proliferating WI38-VA13 or HT29 cells were harvested from culture flasks with non-enzymatic cell dissociation buffer and cultured overnight in 96-well plates (Corning) at 1000 cells/well in a humidified chamber (37° C., 5% CO2). […] In some experiments, cells were plated at 1500 cells/well and treated the same day. […] On harvest day, 50 μl of Cell Titer Glo (Promega) was added to the cells and incubated 0.5 hours at room temperature. […] Relative cell viability was determined as a percentage of untreated control wells. IC50 values were calculated using four-parameter logistic model #203 with XLfit v4.2 (IDBS).

The test system of another test is PDX-PAX-13565. In words: PDX-PAX-13565 pancreatic PDX model. The following applies: 0.3, 1 and 3 mg/kg. Type of test: in vivo, mouse.
Description: as §3

A further test relates to HT29. Briefly: HT29 colon CLX model. Type of test: in vivo, mouse. Conditions: 3 mg/kg.
Description: as §2

In the next test the test system is PDX-NSX-11122. Briefly: PDX-NSX-11122 NSCLC PDX model. Type of test: in vivo, mouse.
Description: as §3

Another test concerns N87 xenografts. In words: T-DM1 resistance generated in vivo in N87 xenografts and follow-on treatment. Also on record: species or system mouse. The following applies: […] weekly.
A further test concerns N87 tumors. Briefly: In vivo efficacy in N87 tumors in NSG mice. Details: species or system mouse. Conditions: N87 model; 6 and 10 mg/kg Q4D×4.
A further test has as its system N87 gastric xenografts. Briefly: N87 gastric xenograft model. Type of test: in vivo, mouse. Conditions: IV Q4d×4.
For a further test, the system named is N87-TM tumors. Briefly: In vivo efficacy in T-DM1 resistant N87-TM tumors in NSG mice. Also on record: species or system mouse. The following applies: N87-TM-2 model; 6 and 10 mg/kg.
Test [4] has as its system 144580 breast patient-derived xenografts. The following applies: all doses tested (1, 5, 3 and 6 mg/kg), Q4d×4.
Description: (§4) For each model described below the first dose was given on Day 1. The tumors were measured at least once a week and their volume was calculated with the formula: tumor volume (mm^3)=0.5×(tumor width^2)(tumor length). The mean tumor volumes (±S. E. M.) for each treatment group were calculated having a maximum of 8-10 animals and a minimum of 6-8 animals to be included.
The 144580 breast patient-derived xenografts were subcutaneously passaged in vivo as fragments from animal to animal in nude (Nu/Nu) female mice. When the tumors reached a volume of 150 to 300 mm^3, they were staged to ensure uniformity of the tumor size among various treatment groups.
Test [5] concerns 37622 patient-derived xenografts. The following applies: 10 mg/kg, Q4d×4.
Description: as §4
The 37622 patient-derived xenografts were subcutaneously passaged in vivo as fragments from animal to animal in nude (Nu/Nu) female mice. When the tumors reached a volume of 150 to 300 mm^3, they were staged to ensure uniformity of the tumor size among various treatment groups.
The test system of the next test is JIMT-1 breast xenografts. Conditions: even at 6 mg/kg, IV Q4d×4.
In test [6] the test system is N87 cell line xenograft tumors. In words: Bystander effect, immunohistocytochemistry (pHH3, human IgG) of N87 xenograft tumors. Type of test: in vivo, mouse. The following applies: single dose T-DM1 6 mg/kg or T-vc0101 3 mg/kg, tumors harvested 96 hours later. (In xenograft studies the graft and the host belong to different species.)
Description: Tumor sections were stained for human IgG to detect ADC bound to tumor cells and phosphhistone H3 (pHH3) to detect mitotic cells as readout of the proposed mechanism of action for the payloads of both ADCs.
[7] abbreviates: read-out: sensitivity to free payload (IC50), N87-T-DM1_Ms2.
The mark [8] stands for this setting: read-out: sensitivity to free payload (IC50), N87-T-DM1_Ms7.
The mark [9] stands for this setting: read-out: sensitivity to free payload (IC50), N87-T-DM1_Ms17.

“Also recorded” adds a separate entry of the source. Read-outs that look alike come from different tables or passages of the source. Square brackets hold non-standard residues; d marks the D form. Peptide text beside a SMILES is read from it. * marks the point of attachment. Dolaproine = CO[C@@H]([C@@H]1CCCN1)[C@@H](C)C(=O)O; Dil = CC[C@H](C)[C@H](NC)[C@@H](CC(=O)O)OC; Doe = c1ccc(C[C@H](N*)c2nccs2)cc1; Aib = CC(C)(N)C(=O)O

A word on the IC50: it is the concentration needed to halve the response being measured.

Description for JIMT-1 breast xenografts: as §4
To generate xenografts, nude (Nu/Nu) female mice were implanted subcutaneously with 5×10^6 JIMT-1 cells (DSMZ# ACC-589) in 50% Matrigel (BD Biosciences). When the tumors reached a volume of 200 to 250 mm^3, the tumors were staged to ensure uniformity of the tumor mass among various treatment groups.
Description for N87 gastric xenografts: as §4
When the tumors reached a volume of 250 to 450 mm^3, the tumors were staged to ensure uniformity of the tumor mass among various treatment groups.
Description for N87 tumors: (§5) In order to determine if the resistance observed in cell culture was recapitulated in vivo, parental N87 cells and N87-TM-2 cells were expanded and injected into the flanks of Female NOD scid gamma (NSG) immunodeficient mice (NOD. Cg-Prkdcscid II2rgtm1Wjl/SzJ) obtained from The Jackson Laboratory (Bar Harbor, Me.). Mice were injected subcutaneously in the right flank with suspensions of either N87 or N87-TM cells (7.5×10^6 cells per injection, with 50% Matrigel). Mice were randomized into study groups when tumors reached ˜0.3 g (˜250 mm^3). […] Tumors were measured weekly and mass calculated as volume=(width×width×length)/2. Time-to-event analysis (tumor doubling) was conducted and significance evaluated by Log-rank (Mantel-Cox) test.
Description for N87 xenografts: Tumors were measured twice per week or weekly and mass calculated as volume=(width×width×length)/2.
Description for N87-TM tumors: as §5

Turning to `COc1cccc2c1C(=O)c1c(O)c3c(c(O)c1C2=O)C[C@@](O)(C(=O)CO)C[C@@H]3O[C@H]1C[C@H](N)[C@H](O)[C@H](C)O1` [Doxorubicin], the IC50 in test [1] (setting [7]) amounted to 46 nM; in test [1] (setting [8]) it was 79 nM; in test [1] (setting [9]) it was 34 nM; in the test on N87 parental cells, 48 nM. In addition, the “sensitivity of T-DM1 resistant cells generated in vivo” value in test [1] is given as “No resistance”. In addition, the “sensitivity of N87-TM cells” value in test [2] was “lack of cross-resistance”.

“EDB-L19-vc-0101: anti-EDB antibody L19 conventionally conjugated to vc-0101”: the tumor response result is on record as “tumor regression” in the test on Ramos; “tumor regression in a dose dependent manner” with PDX-PAX-12534; “tumor regressions” in the test on H-1975 (3 mg/kg); “tumor regression” in the test on H-1975 (3 mg/kg, and as low as […]); “tumor regression in a dose dependent manner” in the test on H-1975 (0.3, 1 and 3 mg/kg); “tumor regression” in the test with H-1975 (highest doses evaluated (3 mg/kg ADC1; 1 mg/kg ADC9)). The tumor response entry in the test on PDX-PAX-13565 is given as “tumor regression in a dose dependent manner”; in the test on HT29 it was “tumor regression”; with PDX-NSX-11122 (1 mg/kg), “delayed tumor growth”; with PDX-NSX-11122 (3 mg/kg), “complete regressions”; with PDX-NSX-11122 (3 mg/kg and […]), “tumor regression”. The “Avg IC50” value in test [3] is 15,346 ng/ml. The “efficacy compared to isotype negative control ADCs and disulfide linker ADCs” value with PDX-NSX-11122 (1 and 3 mg/kg vs 10 mg/kg EDB-L19-diS-DM1, 5 mg/kg EDB-L19-diS-C2OCO-1569) was “greater efficacy”.

As for EDB-L19-diS-DM1, in test [3], the “Avg IC50” value came out at 237 ng/mL.

Regarding `CC[C@H](C)[C@@H]([C@@H](CC(=O)N1CCC[C@H]1[C@H](OC)[C@@H](C)C(=O)N[C@@H](Cc1ccccc1)c1nccs1)OC)N(C)C(=O)[C@@H](NC(=O)C(C)(C)N)C(C)C` [compound 0101, 2-methylalanyl-N-[(3R,4S,5S)-3-methoxy-1-{(2S)-2-[(1R,2R)-1-methoxy-2-methyl-3-oxo-3-{[(1 S)-2-phenyl-1-(1,3-thiazol-2-yl)ethyl]amino}propyl]pyrrolidin-1-yl}-5-methyl-1-oxoheptan-4-yl]-N-methyl-L-valinamide] (H-[Aib]V[Dil][Dolaproine]-Doe), the IC50 in [1] (setting [7]) turned out to be 0.4 nM; in [1] (setting [8]), 0.6 nM; in test [1] (setting [9]), 0.28 nM; in the test on N87 parental cells, 0.5 nM. Further, in test [1], the “sensitivity of T-DM1 resistant cells generated in vivo” value was “surprisingly sensitive; also recorded: not resistant”. Besides, in test [2], the “sensitivity of N87-TM cells” value is “retained sensitivity”.

On to T-DM1, for which, in the test on N87 xenografts, the “mice responding to initial T-DM1 treatment” value is on record as 17 out of 20. Further, the “mice in which tumor doubling was prevented for at least 60 days” value in the test on N87 tumors is listed as greater than 50%. Besides, the tumor response entry in the test on N87 gastric xenografts (10 mg/kg) is “complete regression of tumors”; in the test on N87 gastric xenografts (1 and 3 mg/kg), “delayed tumor growth”; in [4], “ineffective”; in test [5], “only provided some therapeutic benefit”; in the test on JIMT-1 breast xenografts it was “inactive”. Also, the “prevention of tumor doubling” value in the test with N87-TM tumors is “failed to do so”. The bystander effect entry in test [6] is “is not”.

With `COc1cc2cc(c1Cl)N(C)C(=O)C[C@H](OC(=O)[C@H](C)N(C)C(=O)CCS)[C@]1(C)O[C@H]1[C@H](C)[C@@H]1C[C@@](O)(NC(=O)O1)[C@H](OC)/C=C/C=C(\C)C2` [DM1], the “sensitivity of N87-TM cells” value in [2] is listed as “retained sensitivity”.

Consider `CC(=O)O[C@H]1C(=O)[C@@]2(C)[C@H]([C@H](OC(=O)c3ccccc3)[C@]3(O)C[C@H](OC(=O)[C@H](O)[C@@H](NC(=O)c4ccccc4)c4ccccc4)C(C)=C1C3(C)C)[C@]1(OC(C)=O)CO[C@@H]1C[C@@H]2O` [paclitaxel], for which, in [2], the “sensitivity of N87-TM cells” value was “lack of cross-resistance”.
